Values quoted from earlier work in patent US20210346426A1, “COMPOSITION AND METHOD FOR THE TREATMENT OF COVID-19” (priority 2020, published 2021).

Tests used:
blood coagulation [1] = test system: blood coagulation
[2] = even at high concentration
[3] = after oral administration
blood coagulation [4] = details: intravenous injection

| Structure (SMILES) | effect on blood coagulation in vitro (blood coagulation [1]) | Acidity (pKa) pKa2 | effect in contact with skin [2] | excreted unchanged in urine [3] | oxidation of the citrate ion [3] | coagulation times of the blood (blood coagulation [4]) |
| --- | --- | --- | --- | --- | --- | --- |
| O=C([O-])CC(O)(CC(=O)[O-])C(=O)[O-].[Na+].[Na+].[Na+] [sodium citrate, Sodium Citrate] | prevents the blood from coagulation | – | – | – | – | – |
| O=C(O)CC(O)(CC(=O)O)C(=O)O [Citric acid, 2-Hydroxypropane-1,2,3-tricarboxylic acid] | – | pKa2 = 4.76 | not injurious | – | – | – |
| O=C(O)CC(O)(CC(=O)O)C(=O)O [citrate ion] | acts as an anticoagulant | – | – | less than 1% | rapidly and almost completely oxidized | shortens |
